{
  "source": "patent US20220023289A1",
  "about": "“Application Of Pyrroloquinoline Quinone In Preparation Of Medicament Used For Preventing And Treating Acute Altitude Sickness And Acute Altitude Hypoxia Injury” (priority 2018, published 2022)",
  "type_in_all_cases": "in vivo, Wistar rat",
  "key": {"[1]": {"tested_on": "rats exposed to acute altitude hypoxia", "assay": "Blood glucose in rats exposed to acute altitude hypoxia (6000 m, 8 h, after 7 days intragastric)", "description": "(§1) Select healthy Wistar rats weight 160-200 g, half female and half male. After feeding for 3 days, these Wistar rats are randomly divided into ten groups according to their body weight, each group has 16±2 rats. The groups are divided as follows: five groups of the hypoxic exposure drug test group, respectively, are given 0.91 mg/kg, 1.83 mg/kg, 3.66 mg/kg, 7.31 mg/kg, and 14.63 mg/kg drugs. […] After continuous intragastric administration for 7 days, the animals in the hypoxic exposure group are simultaneously put into the decompression and hypoxia compound experimental chamber, the hatch is closed, and the pressure is reduced at a speed of 10 m/s. After being raised to an altitude of 6000 m and maintained for 8 hours, the speed in 10 m/s drops is reduced to normal altitude, open the hatch, and then take out the animal, collect blood samples (after standing for 1 hour, the supernatant is centrifuged and stored at −20° C.), and liver tissue samples. Detection indicator includes body weight, serum blood glucose, ATP, lactic acid, endothelin, nitric oxide, SOD, CO, MDA related to oxidative stress, and total protein, albumin, triglycerides, total cholesterol, high-density lipoprotein cholesterol, low-density lipoprotein cholesterol, glutamic pyruvic transaminase, total bilirubin, gluamic oxalacetic transaminase, serum urea nitrogen, creatinine, uric acid, lactate dehydrogenase, creatine kinase, α-hydroxybutyrate dehydrogenase; liver ATP, hepatic glycogen. Except that the formal oxygen control animal group is not put into the decompression and hypoxia compound experimental chamber, other experimental conditions and detection indicators are the same.\n(§2) Measure blood glucose, total protein, albumin, triglycerides, total cholesterol, high-density lipoprotein cholesterol, low-density lipoprotein cholesterol, glutamic-pyruvic transaminase, total bilirubin, glutamic oxalacetic transaminase, serum urea nitrogen, creatinine, uric acid, lactate dehydrogenase, creatine kinase, α-hydroxybutyrate dehydrogenase, blood homocysteine by using an automatic blood biochemical analyzer."}, "[2]": {"tested_on": "rats exposed to acute altitude hypoxia", "assay": "Lipid metabolism in rats exposed to acute altitude hypoxia", "description": "as §1, §2"}, "[3]": {"tested_on": "rats exposed to acute altitude hypoxia", "assay": "Renal function in rats exposed to acute altitude hypoxia", "description": "as §1, §2"}, "[4]": {"details": "female rats, hypoxia, 0.91 mg/kg"}, "[5]": {"details": "female rats, hypoxia, 1.83 mg/kg"}, "[6]": {"details": "female rats, hypoxia, 3.66 mg/kg"}, "[7]": {"details": "female rats, hypoxia, 7.31 mg/kg"}, "[8]": {"details": "female rats, hypoxia, 14.63 mg/kg"}, "[9]": {"details": "female rats, normoxia, 3.66 mg/kg"}, "[10]": {"details": "male rats, hypoxia, 14.63 mg/kg"}},
  "data": [
    {"smiles": "O=C(O)c1cc(C(=O)O)c2c(n1)C(=O)C(=O)c1cc(C(=O)O)[nH]c1-2", "note": "[PQQ, pyrroloquinoline quinone]", "values": [
      {"measurement": "effect on blood glucose", "setting": "[1]; acute hypoxia exposed female rats", "result": "increasing blood glucose"},
      {"measurement": "Blood sugar", "setting": "[1]; [4]", "result": "8.59 ± 0.48", "unit": "mmol/L"},
      {"measurement": "Blood sugar", "setting": "[1]; [5]", "result": "8.28 ± 0.84", "unit": "mmol/L"},
      {"measurement": "Blood sugar", "setting": "[1]; [6]", "result": "8.27 ± 0.37", "unit": "mmol/L"},
      {"measurement": "Blood sugar", "setting": "[1]; [7]", "result": "7.91 ± 0.65", "unit": "mmol/L"},
      {"measurement": "Blood sugar", "setting": "[1]; [8]", "result": "7.55 ± 0.48", "unit": "mmol/L"},
      {"measurement": "effect on blood glucose", "setting": "[1]; female rats, normoxia", "result": "no significant effects"},
      {"measurement": "Blood sugar", "setting": "[1]; [9]", "result": "8.13 ± 0.57", "unit": "mmol/L"},
      {"measurement": "effect on blood glucose level", "setting": "[1]; male rats", "result": "no significant effects"},
      {"measurement": "Blood sugar", "setting": "[1]; male rats, hypoxia, 0.91 mg/kg", "result": "7.35 ± 1.94", "unit": "mmol/L"},
      {"measurement": "Blood sugar", "setting": "[1]; male rats, hypoxia, 1.83 mg/kg", "result": "8.21 ± 1.46", "unit": "mmol/L"},
      {"measurement": "Blood sugar", "setting": "[1]; male rats, hypoxia, 3.66 mg/kg", "result": "8.97 ± 1.44", "unit": "mmol/L"},
      {"measurement": "Blood sugar", "setting": "[1]; male rats, hypoxia, 7.31 mg/kg", "result": "8.28 ± 1.57", "unit": "mmol/L"},
      {"measurement": "Blood sugar", "setting": "[1]; [10]", "result": "8.85 ± 2.04", "unit": "mmol/L"},
      {"measurement": "High density lipoprotein cholesterol", "setting": "[2]; [4]", "result": "1.30 ± 0.07", "unit": "mmol/L"},
      {"measurement": "Low density lipoprotein cholesterol", "setting": "[2]; [4]", "result": "0.12 ± 0.01", "unit": "mmol/L"},
      {"measurement": "Total cholesterol", "setting": "[2]; [4]", "result": "1.69 ± 0.11", "unit": "mmol/L"},
      {"measurement": "High density lipoprotein cholesterol", "setting": "[2]; [5]", "result": "1.18 ± 0.14", "unit": "mmol/L"},
      {"measurement": "Low density lipoprotein cholesterol", "setting": "[2]; [5]", "result": "0.10 ± 0.02", "unit": "mmol/L"},
      {"measurement": "Total cholesterol", "setting": "[2]; [5]", "result": "1.56 ± 0.17", "unit": "mmol/L"},
      {"measurement": "High density lipoprotein cholesterol", "setting": "[2]; [6]", "result": "1.14 ± 0.10", "unit": "mmol/L"},
      {"measurement": "Low density lipoprotein cholesterol", "setting": "[2]; [6]", "result": "0.10 ± 0.02", "unit": "mmol/L"},
      {"measurement": "Total cholesterol", "setting": "[2]; [6]", "result": "1.47 ± 0.11", "unit": "mmol/L"},
      {"measurement": "High density lipoprotein cholesterol", "setting": "[2]; [7]", "result": "1.27 ± 0.09", "unit": "mmol/L"},
      {"measurement": "Low density lipoprotein cholesterol", "setting": "[2]; [7]", "result": "0.10 ± 0.02", "unit": "mmol/L"},
      {"measurement": "Total cholesterol", "setting": "[2]; [7]", "result": "1.69 ± 0.09", "unit": "mmol/L"},
      {"measurement": "High density lipoprotein cholesterol", "setting": "[2]; [8]", "result": "1.28 ± 0.11", "unit": "mmol/L"},
      {"measurement": "Low density lipoprotein cholesterol", "setting": "[2]; [8]", "result": "0.11 ± 0.02", "unit": "mmol/L"},
      {"measurement": "Total cholesterol", "setting": "[2]; [8]", "result": "1.64 ± 0.13", "unit": "mmol/L"},
      {"measurement": "effect on total cholesterol, low-density and high-density lipoprotein cholesterol", "setting": "[2]; female rats, normoxia", "result": "no significant effects"},
      {"measurement": "High density lipoprotein cholesterol", "setting": "[2]; [9]", "result": "1.39 ± 0.10", "unit": "mmol/L"},
      {"measurement": "Low density lipoprotein cholesterol", "setting": "[2]; [9]", "result": "0.14 ± 0.03", "unit": "mmol/L"},
      {"measurement": "Total cholesterol", "setting": "[2]; [9]", "result": "1.87 ± 0.10", "unit": "mmol/L"},
      {"measurement": "effect on total cholesterol, low-density and high-density lipoprotein cholesterol", "setting": "[2]; hypoxia exposed female rats", "result": "no significant effects"},
      {"measurement": "effect on triglycerides", "setting": "[2]; male rats exposed to hypoxia", "result": "is not found"},
      {"measurement": "High density lipoprotein cholesterol", "setting": "[2]; male rats, hypoxia, 0.91 mg/kg", "result": "1.03 ± 0.09", "unit": "mmol/L"},
      {"measurement": "Low density lipoprotein cholesterol", "setting": "[2]; male rats, hypoxia, 0.91 mg/kg", "result": "0.16 ± 0.03", "unit": "mmol/L"},
      {"measurement": "Total cholesterol", "setting": "[2]; male rats, hypoxia, 0.91 mg/kg", "result": "1.47 ± 0.15", "unit": "mmol/L"},
      {"measurement": "Triglycerides", "setting": "[2]; male rats, hypoxia, 0.91 mg/kg", "result": "1.25 ± 0.64", "unit": "mmol/L"},
      {"measurement": "High density lipoprotein cholesterol", "setting": "[2]; male rats, hypoxia, 1.83 mg/kg", "result": "1.23 ± 0.11", "unit": "mmol/L"},
      {"measurement": "Low density lipoprotein cholesterol", "setting": "[2]; male rats, hypoxia, 1.83 mg/kg", "result": "0.20 ± 0.02", "unit": "mmol/L"},
      {"measurement": "Total cholesterol", "setting": "[2]; male rats, hypoxia, 1.83 mg/kg", "result": "1.71 ± 0.90", "unit": "mmol/L"},
      {"measurement": "Triglycerides", "setting": "[2]; male rats, hypoxia, 1.83 mg/kg", "result": "1.06 ± 0.35", "unit": "mmol/L"},
      {"measurement": "High density lipoprotein cholesterol", "setting": "[2]; male rats, hypoxia, 3.66 mg/kg", "result": "1.28 ± 0.09", "unit": "mmol/L"},
      {"measurement": "Low density lipoprotein cholesterol", "setting": "[2]; male rats, hypoxia, 3.66 mg/kg", "result": "0.19 ± 0.04", "unit": "mmol/L"},
      {"measurement": "Total cholesterol", "setting": "[2]; male rats, hypoxia, 3.66 mg/kg", "result": "1.80 ± 0.16", "unit": "mmol/L"},
      {"measurement": "Triglycerides", "setting": "[2]; male rats, hypoxia, 3.66 mg/kg", "result": "1.36 ± 0.58", "unit": "mmol/L"},
      {"measurement": "High density lipoprotein cholesterol", "setting": "[2]; male rats, hypoxia, 7.31 mg/kg", "result": "1.23 ± 0.10", "unit": "mmol/L"},
      {"measurement": "Low density lipoprotein cholesterol", "setting": "[2]; male rats, hypoxia, 7.31 mg/kg", "result": "0.16 ± 0.02", "unit": "mmol/L"},
      {"measurement": "Total cholesterol", "setting": "[2]; male rats, hypoxia, 7.31 mg/kg", "result": "1.69 ± 0.10", "unit": "mmol/L"},
      {"measurement": "Triglycerides", "setting": "[2]; male rats, hypoxia, 7.31 mg/kg", "result": "1.35 ± 0.36", "unit": "mmol/L"},
      {"measurement": "High density lipoprotein cholesterol", "setting": "[2]; [10]", "result": "1.44 ± 0.15", "unit": "mmol/L"},
      {"measurement": "Low density lipoprotein cholesterol", "setting": "[2]; [10]", "result": "0.19 ± 0.03", "unit": "mmol/L"},
      {"measurement": "Total cholesterol", "setting": "[2]; [10]", "result": "1.95 ± 0.15", "unit": "mmol/L"},
      {"measurement": "Triglycerides", "setting": "[2]; [10]", "result": "1.40 ± 0.74", "unit": "mmol/L"},
      {"measurement": "effect on low density lipoprotein cholesterol", "setting": "[2]; male rats, low-dose", "result": "no significant effects"},
      {"measurement": "effect on total cholesterol and high-density lipoprotein cholesterol", "setting": "[2]; male rats, low-dose", "result": "reducing the amount"},
      {"measurement": "Creatinine", "setting": "[3]; [4]", "result": "14.67 ± 1.46", "unit": "µmol/L"},
      {"measurement": "Serum urea nitrogen", "setting": "[3]; [4]", "result": "6.85 ± 0.90", "unit": "mmol/L"},
      {"measurement": "Uric acid", "setting": "[3]; [4]", "result": "163.43 ± 12.51", "unit": "µmol/L"},
      {"measurement": "Creatinine", "setting": "[3]; [5]", "result": "14.23 ± 1.90", "unit": "µmol/L"},
      {"measurement": "Serum urea nitrogen", "setting": "[3]; [5]", "result": "5.98 ± 0.62", "unit": "mmol/L"},
      {"measurement": "Uric acid", "setting": "[3]; [5]", "result": "152.71 ± 16.58", "unit": "µmol/L"},
      {"measurement": "Creatinine", "setting": "[3]; [6]", "result": "12.71 ± 1.98", "unit": "µmol/L"},
      {"measurement": "Serum urea nitrogen", "setting": "[3]; [6]", "result": "5.79 ± 0.62", "unit": "mmol/L"},
      {"measurement": "Uric acid", "setting": "[3]; [6]", "result": "151.14 ± 18.48", "unit": "µmol/L"},
      {"measurement": "Creatinine", "setting": "[3]; [7]", "result": "16.06 ± 1.19", "unit": "µmol/L"},
      {"measurement": "Serum urea nitrogen", "setting": "[3]; [7]", "result": "6.00 ± 0.98", "unit": "mmol/L"},
      {"measurement": "Uric acid", "setting": "[3]; [7]", "result": "152.43 ± 25.28", "unit": "µmol/L"},
      {"measurement": "Creatinine", "setting": "[3]; [8]", "result": "13.51 ± 1.33", "unit": "µmol/L"},
      {"measurement": "Serum urea nitrogen", "setting": "[3]; [8]", "result": "5.86 ± 0.54", "unit": "mmol/L"},
      {"measurement": "Uric acid", "setting": "[3]; [8]", "result": "155.33 ± 21.56", "unit": "µmol/L"},
      {"measurement": "effect on serum urea nitrogen, creatinine and uric acid", "setting": "[3]; female rats, normoxia", "result": "no significant effects"},
      {"measurement": "Creatinine", "setting": "[3]; [9]", "result": "19.37 ± 4.32", "unit": "µmol/L"},
      {"measurement": "Serum urea nitrogen", "setting": "[3]; [9]", "result": "6.23 ± 0.36", "unit": "mmol/L"},
      {"measurement": "Uric acid", "setting": "[3]; [9]", "result": "193.57 ± 20.80", "unit": "µmol/L"},
      {"measurement": "effect on serum urea nitrogen, creatinine and uric acid", "setting": "[3]; hypoxia exposed female rats", "result": "no significant effects"},
      {"measurement": "effect on serum urea nitrogen and creatinine", "setting": "[3]; hypoxia exposed male rats", "result": "no significant effect"},
      {"measurement": "effect on serum uric acid content", "setting": "[3]; hypoxia exposed male rats, low-dose", "result": "reduce serum uric acid content"},
      {"measurement": "Creatinine", "setting": "[3]; male rats, hypoxia, 0.91 mg/kg", "result": "18.44 ± 1.46", "unit": "µmol/L"},
      {"measurement": "Serum urea nitrogen", "setting": "[3]; male rats, hypoxia, 0.91 mg/kg", "result": "5.13 ± 0.75", "unit": "mmol/L"},
      {"measurement": "Uric acid", "setting": "[3]; male rats, hypoxia, 0.91 mg/kg", "result": "134.25 ± 19.08", "unit": "µmol/L"},
      {"measurement": "Creatinine", "setting": "[3]; male rats, hypoxia, 1.83 mg/kg", "result": "21.59 ± 3.31", "unit": "µmol/L"},
      {"measurement": "Serum urea nitrogen", "setting": "[3]; male rats, hypoxia, 1.83 mg/kg", "result": "5.44 ± 1.13", "unit": "mmol/L"},
      {"measurement": "Uric acid", "setting": "[3]; male rats, hypoxia, 1.83 mg/kg", "result": "142.60 ± 10.78", "unit": "µmol/L"}
    ]}
  ]
}
